# Data: BindingDB's records for doi:10.1021/jm400944k (China Pharmaceutical University, 2013)
# pEC50: −log10 of the molar value.
# Molecular target: T1, Nuclear factor erythroid 2-related factor 2 (Homo sapiens, UniProt Q16236)
# T1 sequence (Q16236 whole entry): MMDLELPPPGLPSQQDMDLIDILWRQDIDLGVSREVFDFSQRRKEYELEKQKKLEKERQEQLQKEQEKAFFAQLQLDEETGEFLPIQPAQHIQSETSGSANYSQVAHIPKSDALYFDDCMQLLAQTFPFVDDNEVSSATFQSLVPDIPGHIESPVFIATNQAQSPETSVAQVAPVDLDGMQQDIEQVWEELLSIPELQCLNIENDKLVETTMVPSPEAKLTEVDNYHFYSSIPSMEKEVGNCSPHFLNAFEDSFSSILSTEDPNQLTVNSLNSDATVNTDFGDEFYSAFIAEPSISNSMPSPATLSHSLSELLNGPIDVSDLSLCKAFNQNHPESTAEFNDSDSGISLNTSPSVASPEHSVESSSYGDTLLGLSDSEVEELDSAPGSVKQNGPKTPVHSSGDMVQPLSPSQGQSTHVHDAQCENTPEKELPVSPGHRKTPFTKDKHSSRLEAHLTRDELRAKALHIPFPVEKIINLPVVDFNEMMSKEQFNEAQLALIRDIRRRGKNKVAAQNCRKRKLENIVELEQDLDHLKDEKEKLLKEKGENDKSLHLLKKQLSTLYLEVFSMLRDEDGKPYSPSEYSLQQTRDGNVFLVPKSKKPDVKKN
# Assay: Induction of Nrf2-mediated ARE activity in human HepG2-ARE-C8 cells after 12 hrs by luciferase reporter gene assay
row,SMILES,pEC50
1,COc1cc2c(cc1OC)C1CN/C(=C\C(=O)c3cccc(Cl)c3)C(=O)N1CC2 (configuration not stated),< 4.00
2,COc1ccc2c(c1)C1CN/C(=C\C(=O)c3cccc(F)c3)C(=O)N1CC2 (configuration not stated),< 4.00
3,COc1cccc(C(=O)/C=C2\NCC3c4cc(OC)ccc4CCN3C2=O)c1 (configuration not stated),< 4.00
4,O=C(/C=C1\NCC2c3ccccc3CCN2C1=O)c1ccc(-c2ccccc2)cc1 (configuration not stated),< 4.00
5,COc1ccc2c(c1)CCN1C(=O)/C(=C/C(=O)c3cccc(F)c3)NCC21 (configuration not stated),< 4.00
6,COc1cccc2c1CCN1C(=O)/C(=C/C(=O)c3ccccc3F)NCC21 (configuration not stated),< 4.00
7,COc1cc2c(cc1OC)C1CN/C(=C\C(=O)c3ccc(F)cc3)C(=O)N1CC2 (configuration not stated),4.09
8,COc1cc2c(cc1OC)C1CN/C(=C\C(=O)c3cccc(F)c3)C(=O)N1CC2 (configuration not stated),4.04
9,COc1cc2c(cc1OC)C1CN/C(=C\C(=O)c3ccccc3F)C(=O)N1CC2 (configuration not stated),4.12
10,COc1cc2c(cc1OC)C1CN/C(=C\C(=O)c3ccccc3)C(=O)N1CC2 (configuration not stated),< 4.00
11,COc1ccc2c(c1)C1CN/C(=C\C(=O)c3cccc(Cl)c3)C(=O)N1CC2 (configuration not stated),< 4.00
12,COc1ccc2c(c1)CCN1C(=O)/C(=C/C(=O)c3ccccc3F)NCC21 (configuration not stated),< 4.00
13,COc1ccc2c(c1)C1CN/C(=C\C(=O)c3ccc(F)cc3)C(=O)N1CC2 (configuration not stated),4.06
14,COc1ccc2c(c1)C1CN/C(=C\C(=O)c3ccccc3F)C(=O)N1CC2 (configuration not stated),< 4.00
15,COc1cccc2c1CCN1C(=O)/C(=C/C(=O)c3cccc(F)c3)NCC21 (configuration not stated),< 4.00
16,COc1cccc(C(=O)/C=C2\NCC3c4cc(OC)c(OC)cc4CCN3C2=O)c1 (configuration not stated),< 4.00
17,CC(C)(C)c1cc(O)ccc1O [CHEBI:78886],4.04

# More lines, now with the values ahead:
row,pEC50,SMILES
1,< 4.00,COc1ccc2c(c1)C1CN/C(=C\C(=O)c3ccccc3)C(=O)N1CC2 (configuration not stated)
2,< 4.00,COc1ccccc1C(=O)/C=C1\NCC2c3ccccc3CCN2C1=O (configuration not stated)
3,< 4.00,O=C(/C=C1\NCC2c3ccccc3CCN2C1=O)c1ccccc1[N+](=O)[O-] (configuration not stated)
4,4.03,COc1ccc(C(=O)/C=C2\NCC3c4ccccc4CCN3C2=O)cc1OC (configuration not stated)
5,< 4.00,O=C(/C=C1\NCC2c3ccccc3CCN2C1=O)c1ccc(F)c(F)c1 (configuration not stated)
6,< 4.00,COc1cccc(C(=O)/C=C2\NCC3c4ccccc4CCN3C2=O)c1 (configuration not stated)
7,< 4.00,O=C(/C=C1\NCC2c3ccccc3CCN2C1=O)c1ccc([N+](=O)[O-])cc1 (configuration not stated)
8,< 4.00,O=C(/C=C1\NCC2c3ccccc3CCN2C1=O)c1ccc(Cl)cc1 (configuration not stated)
9,< 4.00,O=C(/C=C1\NCC2c3ccccc3CCN2C1=O)c1ccccc1Cl (configuration not stated)
10,< 4.00,COc1ccc2c(c1)CCN1C(=O)/C(=C/C(=O)c3ccccc3)NCC21 (configuration not stated)
11,4.30,COc1cc2c(cc1OC)C1CN/C(=C\C(=O)c3cccc([N+](=O)[O-])c3)C(=O)N1CC2 (configuration not stated)
12,4.23,O=C(/C=C1\NCC2c3ccccc3CCN2C1=O)c1cc(F)cc(F)c1 (configuration not stated)
13,< 4.00,Cc1ccc(C(=O)/C=C2\NCC3c4ccccc4CCN3C2=O)cc1 (configuration not stated)
14,< 4.00,O=C(/C=C1\NCC2c3ccccc3CCN2C1=O)c1ccc(F)cc1 (configuration not stated)
15,4.23,O=C(/C=C1\NCC2c3ccccc3CCN2C1=O)c1cccc(Br)c1 (configuration not stated)
16,< 4.00,COc1ccc2c(c1)C1CN/C(=C\C(=O)c3cccc([N+](=O)[O-])c3)C(=O)N1CC2 (configuration not stated)
17,< 4.00,O=C(/C=C1\NCC2c3ccccc3CCN2C1=O)c1ccc(Cl)cc1Cl (configuration not stated)
18,4.23,COc1cccc2c1CCN1C(=O)/C(=C/C(=O)c3ccccc3)NCC21 (configuration not stated)
19,< 4.00,O=C(/C=C1\NCC2c3ccccc3CCN2C1=O)c1cccc(F)c1 (configuration not stated)
20,< 4.00,O=C(/C=C1\NCC2c3ccccc3CCN2C1=O)c1cccc([N+](=O)[O-])c1 (configuration not stated)
21,< 4.00,O=C(/C=C1\NCC2c3ccccc3CCN2C1=O)c1cccc(Cl)c1 (configuration not stated)
22,< 4.00,O=C(/C=C1\NCC2c3ccccc3CCN2C1=O)c1cccc(C(F)(F)F)c1 (configuration not stated)
23,< 4.00,COc1ccc(C(=O)/C=C2\NCC3c4ccccc4CCN3C2=O)cc1 (configuration not stated)
24,< 4.00,O=C(/C=C1\NCC2c3ccccc3CCN2C1=O)c1ccccc1F (configuration not stated)
25,< 4.00,O=C(/C=C1\NCC2c3ccccc3CCN2C1=O)c1ccccc1 (configuration not stated)
